Measured values reported in US6686484B2, “Polycyclic aryl and heteroaryl substituted 1,4-quinones useful for selective inhibition of the coagulation cascade” (Pharmacia Corporation, priority 2000, dated 2004).

What was measured:
Format in all cases: biochemical
[1] = biological target: T1, trypsin, type IX from porcine pancreas (Sus scrofa, UniProt P00761); assay: Trypsin Assay; details: substrate L-BAPNA, 60 min room temperature, OD 405 nm; read-out: Trpysin II IC50
T1 construct: purchased Sigma, St. Louis Mo; host or cells: porcine pancreas
T1 sequence (P00761 9-231): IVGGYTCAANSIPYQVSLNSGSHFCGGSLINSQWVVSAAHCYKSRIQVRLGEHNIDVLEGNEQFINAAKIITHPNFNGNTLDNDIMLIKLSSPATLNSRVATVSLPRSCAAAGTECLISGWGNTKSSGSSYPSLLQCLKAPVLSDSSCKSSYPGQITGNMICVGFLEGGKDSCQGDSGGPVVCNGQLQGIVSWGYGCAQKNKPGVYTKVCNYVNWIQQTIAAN
Description: 5 ug/ml trypsin, type IX from porcine pancreas and 0.375 mM N-α-Benzoyl-L-arginine-p-nitroanilide (L-BAPNA) are added to a 96-well assay plate containing either inhibitor or buffer (50 mM Tris-HCl, pH 8.0, 100 mM NaCl, 0.1% BSA). The reactions, in a final volume of 100 ul are measured immediately at 405 nm to determine background absorbance. The plate is incubated at room temperature for 60 min, at which time the rate of hydrolysis of the substrate is measured by monitoring the reaction at 405 nm for the release of p-nitroaniline. Percent inhibition of trypsin activity is calculated from OD405nm value from the experimental and control sample.
Recombinant soluble TF, consisting of amino acids 1-219 of the mature protein sequence was expressed in E. coli and purified using a Mono Q Sepharose FPLC. Recombinant human VIIa was purchased from American Diagnostica, Greenwich Conn. and chromogenic substrate N-Methylsulfonyl-D-phe-gly-arg-p-nitroaniline was prepared by American Peptide Company, Inc., Sunnyvale, Calif. Factor Xa was obtained from Enzyme Research Laboratories, South Bend Ind., thrombin from Calbiochem, La Jolla, Calif., and trypsin and L-BAPNA from Sigma, St. Louis Mo. The chromogenic substrates S-2765 and S-2238 were purchased from Chromogenix, Sweden.

[2] = biological target: T2, recombinant soluble tissue factor and recombinant human factor VIIa (TF-VIIA) (Homo sapiens, UniProt P08709); assay: TF-VIIa Assay; details: chromogenic substrate N-Methylsulfonyl-D-phe-gly-arg-p-nitroaniline, 60 min room temperature, OD 405 nm
T2 construct: conversion of coagulation factor VII to VIIa by Xa; purchased American Diagnostica, Greenwich Conn; (VIIa); soluble TF made in house in E. coli; host or cells: E. coli (soluble TF)
T2 sequence (P08709 213-466 limits assumed): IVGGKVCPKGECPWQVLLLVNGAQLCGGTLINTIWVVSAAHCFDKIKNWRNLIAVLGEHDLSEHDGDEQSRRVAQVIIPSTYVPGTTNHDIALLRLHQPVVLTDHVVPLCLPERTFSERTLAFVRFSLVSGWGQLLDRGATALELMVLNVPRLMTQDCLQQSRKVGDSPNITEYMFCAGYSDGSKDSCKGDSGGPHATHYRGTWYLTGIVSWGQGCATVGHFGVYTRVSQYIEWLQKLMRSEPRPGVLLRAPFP
T2 sequence (P08709 61-212 limits assumed): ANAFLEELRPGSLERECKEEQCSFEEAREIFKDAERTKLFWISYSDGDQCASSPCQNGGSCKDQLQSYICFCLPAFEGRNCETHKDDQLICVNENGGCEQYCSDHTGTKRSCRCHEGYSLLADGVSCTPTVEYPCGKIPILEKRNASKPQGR
T2 sequence (P13726 33-251 partner limits assumed): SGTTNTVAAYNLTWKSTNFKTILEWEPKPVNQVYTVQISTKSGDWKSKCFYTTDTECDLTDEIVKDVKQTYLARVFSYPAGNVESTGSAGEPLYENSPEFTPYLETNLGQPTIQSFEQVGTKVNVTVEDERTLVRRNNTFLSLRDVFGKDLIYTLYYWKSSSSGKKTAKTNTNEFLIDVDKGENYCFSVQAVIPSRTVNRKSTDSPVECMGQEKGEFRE

human thrombin = human thrombin (Homo sapiens, UniProt P00734); assay: Thrombin Assay; details: substrate H-D-Phenylalanyl-L-pipecolyl-L-arginine-p-nitroaniline, 60 min room temperature, OD 405 nm; read-out: Thrombin II IC50

IC50 [1] [nM]	IC50 [2] [nM]	IC50 (human thrombin) [nM]	SMILES
110	–	–	CC(C)NC1=CC(=O)C(c2ccccc2)=C(CC(=O)NCc2ccc(C(=N)N)cc2)C1=O [Example 1]
740	1300	960	N=C(N)c1ccc(CNC(=O)CC2=C(c3ccccc3)C(=O)C=C(NCCc3ccccc3)C2=O)cc1 [Example 2]
